Results reported in article PMC12431657, “Discovery and mechanistic insights of dibenzoylmethane as a broad spectrum inhibitor of coronavirus” (PLOS Pathogens, 2025).
Several values for one entry are separate records, joined by “and”; a condition that tells them apart may be missing. Equal entries are not always repeated.

Columns and labels:
HCoV-OC43 spike protein = test: Cell-cell fusion assay (HCoV-OC43 spike); assay type: cell-based; conditions: spike-transfected 293T cells with RD cells
Experimental: To obtain further insight into the stage at which DBM inhibits the replication of HCoV-OC43 and other HCoVs, RD cells were incubated with compounds, including DBM, remdesivir (RDV), and chloroquine (CQ), at different stages of viral infection. Viral RNA from the supernatant was extracted and quantitatively analysed via qRT-PCR. […] For the viral binding assay, cells were cultured in the presence or absence of DBM at different concentrations for 1 hour before being infected with HCoV-OC43 at an MOI of 50, and then were placed on ice for 2 hours for the viral particles to bind to the membrane of the host cells, followed by washing with PBS. […] In addition to binding to receptors from host cells, the spike proteins of HCoV-OC43 could also trigger membrane fusion when HCoV-OC43 spike plasmid-transfected 293T cells were seeded together with RD cells as target cells, and the addition of DBM had no effect on this process (S5C Fig). To examine whether DBM inhibits viral internalisation, cells were inoculated with HCoV-OC43 for 1 hour on ice before being treated with either DBM or DMSO, and CQ was included to prevent endosomal acidification. […] To determine whether DBM influences viral release, we quantified viral RNA both intracellularly and in the supernatant. […]

HCoV-OC43 [1] = test: Immunoplaque assay, viral titres of organs and tissues of infected mice; assay type: in vivo, BALB/c suckling mice
Experimental: Next, we characterized the therapeutic efficacy of the DBM in vivo. In this experiment, randomized 5–6-day-old suckling BALB/c mice were orally treated with DBM at concentrations of 500, 200, and 100 mpk 2 hours after being intranasally challenged with HCoV-OC43. Menstruum and VV116 were used as negative and positive controls, respectively. All the mice were sacrificed on Day 5 for organ and sample collection (Fig 4A). The body weight changes of the mice were continuously monitored during the trial. Infection with HCoV-OC43 led to body weight loss in the vehicle-treated mice on Day 5 (Fig 4B). […] The number of viral RNA copies from the brain, spinal cord, lungs, and kidneys were analysed via qRT-PCR, which targeted the HCoV-OC43 nucleocapsid gene sequence. On Day 5, the number of viral RNA copies in the vehicle-treated group reached approximately 10^12 copies in the brain, 10^9 copies in the spinal cord, 10^8 copies in the lungs, and 10^6 copies in the kidney (Fig 4C). In the mice treated with DBM at 500 mpk, the number of viral RNA copies within these organs and tissues was reduced by 1–3 logs compared with the vehicle-treated group. […] Sections of mouse brains, spinal cords, lungs, and kidneys were subjected to immunofluorescence staining with antibodies targeting HCoV-OC43 nucleocapsid proteins.
Fig 4 In vivo antiviral efficacy of DBM in 5-day-old BALB/c suckling mice infected with HCoV-OC43. A) Schematic of the experimental design for evaluating DBM in suckling mice. Each group consisted of 5-6 suckling mice. The schematic was created by the authors using Adobe Illustrator 2022. B) Body weight changes of mice during the experiment. Body weights were recorded daily and all mice were euthanised on the fifth day after infection. C) Viral RNA copies in the brains, spinal cords, lungs, and kidneys of mice collected on Day 5. After grinding and centrifuging the samples with DMEM, viral copies from the supernatants were tested by qRT-PCR. D) Viral titres in homogenised organs and tissues collected from mice on Day 5. E) Immunofluorescence staining of brain and lung sections from mice treated with different regimens. HCoV-OC43 nucleocapsid proteins were detected by immunofluorescence (green). Cell nuclei were stained with DAPI (blue). Data were statistically analyzed with Student’s T test. *: p ≤ 0.05, **: p ≤ 0.01, ***: p ≤ 0.001, ****: p ≤ 0.0001; ns, not significant. The experiments were repeated three times independently with similar results. […] No numeric values are printed in any panel, and nothing was read off the bars, points or curves.
RD cells were preseeded onto 24-well plates and incubated at 37 °C for 24 hours until they reached 90% confluence. The supernatants from the homogenized organs and tissues were serially diluted 10-fold in DMEM. Subsequently, 50 μL of each dilution was added to the wells. Following a 1-hour incubation at 37 °C, the inoculum was removed, and 200 μL of overlay medium (DMEM containing 2% FBS and 1.5% carboxymethyl cellulose) was added to the wells. Four days postinfection, the cells were fixed with 4% paraformaldehyde for 2 hours, followed by three washes with phosphate-buffered saline (PBS). The fixed cells were then permeabilized with 0.5% Triton X-100 for 30 minutes and blocked with 5% bovine serum albumin (BSA) for 30 minutes at room temperature. The cells were subsequently incubated with anti-HCoV-OC43 nucleocapsid protein rabbit serum (ABclonal, SA00001–2) as the primary antibody and HRP-conjugated anti-rabbit IgG (Proteintech) as the secondary antibody, followed by staining with a DAB staining kit (TIANGEN, PA110).

HCoV-OC43 [2] = test: HCoV-OC43 nucleocapsid protein and caspase-6 in infected cells (Western blot); assay type: cell-based; conditions: cells pretreated with serially diluted compound
HCoV-OC43 [3] = test: Viral binding assay; assay type: cell-based; conditions: MOI of 50, on ice 2 hours
Experimental: To obtain further insight into the stage at which DBM inhibits the replication of HCoV-OC43 and other HCoVs, RD cells were incubated with compounds, including DBM, remdesivir (RDV), and chloroquine (CQ), at different stages of viral infection. Viral RNA from the supernatant was extracted and quantitatively analysed via qRT-PCR. […] For the viral binding assay, cells were cultured in the presence or absence of DBM at different concentrations for 1 hour before being infected with HCoV-OC43 at an MOI of 50, and then were placed on ice for 2 hours for the viral particles to bind to the membrane of the host cells, followed by washing with PBS. […] In addition to binding to receptors from host cells, the spike proteins of HCoV-OC43 could also trigger membrane fusion when HCoV-OC43 spike plasmid-transfected 293T cells were seeded together with RD cells as target cells, and the addition of DBM had no effect on this process (S5C Fig). […] To determine whether DBM influences viral release, we quantified viral RNA both intracellularly and in the supernatant.
The cells were seeded onto 24-well plates and incubated overnight at 37 °C. […] The cells were washed three times with PBS before total RNA was extracted and analysed by qRT-PCR as previously described.

For `O=C(CC(=O)c1ccccc1)c1ccccc1` [DBM, dibenzoylmethane], which spike-triggered membrane fusion (HCoV-OC43 spike protein) is on record?
Its spike-triggered membrane fusion is “had no effect”.

And the “Viral load in tissue (Fig4D)” value (HCoV-OC43 [1]; Brain, group G3 DIBEN100, individual mice)?
Its value is 2.4E+06 and 2.9E+06 and 1.6E+06 and 1.9E+06 and 2.5E+06 and 2.3E+06.

What about the “Viral load in tissue (Fig4D)” value (HCoV-OC43 [1]; Brain, group G4 DIBEN200, individual mice) of the same compound?
The value was 2.4E+05 and 2.9E+05 and 1.6E+05 and 2.0E+05 and 2.5E+05.

What about the “Viral load in tissue (Fig4D)” value (HCoV-OC43 [1]; Brain, group G5 DIBEN500, individual mice) of the same compound?
Its value is 5.0E+01 and 0.0E+00 and 3.1E+03.

What about the “viral titres of the organs and tissues” value (HCoV-OC43 [1]; DBM 500 mpk) of the same compound?
The value was “led to a reduction in viral loads”.

What about the “Viral load in tissue (Fig4D)” value (HCoV-OC43 [1]; Kidney, group G3 DIBEN100, individual mice) of the same compound?
The value was 229.9 and 104.0 and 219.4 and 123.5 and 219.8 and 790.8.

And the “Viral load in tissue (Fig4D)” value (HCoV-OC43 [1]; Kidney, group G4 DIBEN200, individual mice)?
The value was 0.0.

What about the “Viral load in tissue (Fig4D)” value (HCoV-OC43 [1]; Kidney, group G5 DIBEN500, individual mice) of the same compound?
The value was 84.6 and 0.0.

And the “Viral load in tissue (Fig4D)” value (HCoV-OC43 [1]; Lung, group G3 DIBEN100, individual mice)?
The value was 0.0 and 160.4 and 76.7 and 2219.2 and 1455.2.

What about the “Viral load in tissue (Fig4D)” value (HCoV-OC43 [1]; Lung, group G4 DIBEN200, individual mice) of the same compound?
Its value is 275.5 and 0.0 and 394.7.

What about the “Viral load in tissue (Fig4D)” value (HCoV-OC43 [1]; Lung, group G5 DIBEN500, individual mice) of the same compound?
Its value is 0.0 and 290.3.

What about the “Viral load in tissue (Fig4D)” value (HCoV-OC43 [1]; Spinal Cord, group G3 DIBEN100, individual mice) of the same compound?
Its value is 1299.4 and 4131.1 and 125.4 and 477.6 and 568.4 and 1615.1.

What about the “Viral load in tissue (Fig4D)” value (HCoV-OC43 [1]; Spinal Cord, group G4 DIBEN200, individual mice) of the same compound?
The value was 7747.0 and 4670.7 and 4797.6 and 4510.0 and 4954.8.

And the “Viral load in tissue (Fig4D)” value (HCoV-OC43 [1]; Spinal Cord, group G5 DIBEN500, individual mice)?
The value was 0.0 and 113.9.

And the “virus replication (nucleocapsid protein, Western blot)” value (HCoV-OC43 [2])?
Its value is “inhibited virus replication”.

What about the viral binding (HCoV-OC43 [3]) of the same compound?
The viral binding was “did not interfere”.
